Tests used:
Dipeptidyl peptidase 4 = Dipeptidyl peptidase 4 (Rattus norvegicus, UniProt P14740); assay: In vitro inhibitory activity against Dipeptidyl peptidase IV (DPP-IV) extracted from rat plasma; assay type: cell-free
[1] = Cmax after an oral dose of 10 umol/Kg in male Sprague-Dawley rats; assay type: ADME, organism-based; parameters: dose 10 umol/Kg, route oral; details: rat, in vivo
[2] = Cmax after an oral dose of 10 umol/Kg in male cynomolgus monkeys; assay type: ADME, organism-based, Macaca fascicularis; parameters: dose 10 umol/Kg, route oral; details: cynomolgus monkey, in vivo
[3] = Clearance from plasma in male Sprague-Dawley rats; assay type: ADME, organism-based; details: rat
[4] = Clearance from plasma in male cynomolgus monkeys; assay type: ADME, organism-based, Macaca fascicularis; details: cynomolgus monkey
[5] = Absolute bioavailability in male cynomolgus monkeys; assay type: ADME, organism-based, Macaca fascicularis; details: cynomolgus monkey, in vivo
[6] = Absolute bioavailability in maleSprague-Dawley rats; assay type: ADME, organism-based; details: male, Sprague-Dawley, rat, in vivo
[7] = Steady state volume of distribution in male Sprague-Dawley rats; assay type: ADME, organism-based; details: rat, in vivo
[8] = Steady state volume of distribution male cynomolgus monkeys; assay type: ADME, organism-based, Macaca fascicularis; details: cynomolgus monkey, in vivo
[9] = Half-life (t1/2) after an oral dose of 1 uM/Kg in monkey; assay type: ADME, organism-based; details: simiiformes, in vivo
[10] = Half-life (t1/2) after an oral dose of 100 mg in human; assay type: ADME, organism-based; details: in vivo
Monkey [11] = assay: In vivo ability to reduce the peak plasma glucose levels in monkey compared to control ( 88 +/- 3 mg/dL) during an oral glucose tolerance test (OGTT); assay type: functional, Cercopithecidae
Monkey [12] = assay: In vivo ability to reduce the plasma glucose levels ( in 0-90 minutes glucose AUC) in monkey compared to control during an oral glucose tolerance test (PGTT); assay type: functional, Cercopithecidae

Sequence of Dipeptidyl peptidase 4 (P14740 whole entry): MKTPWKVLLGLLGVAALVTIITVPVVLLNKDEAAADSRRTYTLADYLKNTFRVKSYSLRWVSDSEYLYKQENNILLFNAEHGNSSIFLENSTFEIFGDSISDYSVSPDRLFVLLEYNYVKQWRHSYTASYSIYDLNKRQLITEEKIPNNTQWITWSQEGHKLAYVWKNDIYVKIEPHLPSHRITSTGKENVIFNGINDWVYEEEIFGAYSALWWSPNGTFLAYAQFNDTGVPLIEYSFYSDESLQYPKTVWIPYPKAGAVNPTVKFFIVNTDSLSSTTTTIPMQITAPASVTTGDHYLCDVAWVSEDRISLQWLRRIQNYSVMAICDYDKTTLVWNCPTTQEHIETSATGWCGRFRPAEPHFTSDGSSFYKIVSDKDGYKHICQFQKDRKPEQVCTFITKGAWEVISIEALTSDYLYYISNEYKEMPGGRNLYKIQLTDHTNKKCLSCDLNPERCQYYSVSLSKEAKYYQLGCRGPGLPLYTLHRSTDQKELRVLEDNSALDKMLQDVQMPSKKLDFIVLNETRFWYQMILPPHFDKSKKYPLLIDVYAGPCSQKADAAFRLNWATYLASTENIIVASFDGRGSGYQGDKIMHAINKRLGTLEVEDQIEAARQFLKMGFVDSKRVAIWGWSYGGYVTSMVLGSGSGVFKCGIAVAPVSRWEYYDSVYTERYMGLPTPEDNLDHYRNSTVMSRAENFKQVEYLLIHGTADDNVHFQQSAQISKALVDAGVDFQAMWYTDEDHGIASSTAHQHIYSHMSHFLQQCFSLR

Structure (SMILES) | IC50 (Dipeptidyl peptidase 4) | Cmax [1] | Cmax [2] | clearance [3] | clearance [4] | bioavailability [5] | bioavailability [6] | Vd [7] | Vd [8] | half-life [9] | half-life [10] | Reduction (Monkey [11]) | Reduction (Monkey [12])
N#C[C@@H]1CCCN1C(=O)[C@@H](N)C1CCCCC1 | 2.8 nM |  |  |  |  |  |  |  |  |  |  |  | 
N#Cc1ccc(NCCNCC(=O)N2CCC[C@H]2C#N)nc1 |  | 3.65 µM | 7.56 µM | 28 mL/min/kg | 21.9 mL/min/kg | ≥ 74% | ≥ 74% | 0.67 L/kg | 0.841 L/kg | 51 min | 51 min | 98 | 38%

Reference: ChEMBL document CHEMBL1135431, “1-[2-[(5-Cyanopyridin-2-yl)amino]ethylamino]acetyl-2-(S)-pyrrolidinecarbonitrile: a potent, selective, and orally bioavailable dipeptidyl peptidase IV inhibitor with antihyperglycemic properties” (J Med Chem, 2002)
